System: lymphocytic leukemia P388
Test: Lymphocytic Leukemia P388 Test
Type: in vivo, BDF1 mice
Conditions: for Median Survival: BDF1 mice; for T/C × 100 (%): ratio of survival time treated/control
Procedure, shortened: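 BDF1 mice (5–6 per group) were inoculated i.p. with 10^6 P388 cells, then dosed i.p. on days 1, 5 and 9 at various doses. Survival was followed for 60 days, and median survival time and the treated/control (T/C) survival ratio were calculated.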

[1] = dose 0.75 mg/kg intraperitoneally on days 1, 5 and 9
[2] = dose 1.5 mg/kg intraperitoneally on days 1, 5 and 9
[3] = dose 3 mg/kg intraperitoneally on days 1, 5 and 9

Row | SMILES | Median Survival [1] [days] | T/C × 100 (%) [1] [%] | Median Survival [2] [days] | T/C × 100 (%) [2] [%] | Median Survival [3] [days] | T/C × 100 (%) [3] [%]
1 | C[C@H](NC(=O)[C@H](CO)NC(=O)[C@H](CC(=O)OC(C)(C)C)NC(=O)OCC1c2ccccc2-c2ccccc21)C(=O)NCCNc1ccc(NCCNC(=O)[C@H](C)NC(=O)[C@H](CO)NC(=O)[C@H](CC(=O)OC(C)(C)C)NC(=O)OCC2c3ccccc3-c3ccccc32)c2c1C(=O)c1c(O)ccc(O)c1C2=O [Example 77, N,N'-[(9,10-Dihydro-5,8-dihydroxy-9,10-dioxo-1,4-anthracenediyl)bis(imino-2,1-ethanediyl)]bis[N-[(9H-fluoren-9-ylmethoxy)carbonyl]-L-α-aspartyl-L-seryl-L-alaninamide]bis(1,1-dimethylethyl)ester] | 20.0 | 167 | 20.0 | 167 | 22.5 | 188
2 | C[C@H](NC(=O)[C@H](CO)NC(=O)[C@@H](N)CC(=O)OC(C)(C)C)C(=O)NCCNc1ccc(NCCNC(=O)[C@H](C)NC(=O)[C@H](CO)NC(=O)[C@@H](N)CC(=O)OC(C)(C)C)c2c1C(=O)c1c(O)ccc(O)c1C2=O [Example 78, N,N'-[(9,10-Dihydro-5,8-dihydroxy-9,10-dioxo-1,4-anthracenediyl)bis(imino-2,1-ethanediyl)]bis[L-α-aspartyl-L-seryl-L-alaninamide]bis(1,1-dimethylethyl)ester] | 18.0 | 150 | 23.0 | 192 | 22.5 | 188
3 | C[C@H](NC(=O)[C@H](C)NC(=O)[C@H](CC(=O)OC(C)(C)C)NC(=O)OCC1c2ccccc2-c2ccccc21)C(=O)NCCNc1ccc(NCCNC(=O)[C@H](C)NC(=O)[C@H](C)NC(=O)[C@H](CC(=O)OC(C)(C)C)NC(=O)OCC2c3ccccc3-c3ccccc32)c2c1C(=O)c1c(O)ccc(O)c1C2=O [Example 79, N,N'-[(9,10-Dihydro-5,8-dihydroxy-9,10-dioxo-1,4-anthracenediyl)bis(imino-2,1-ethanediyl)]bis[N-[(9H-fluoren-9-ylmethoxy)carbonyl]-L-α-aspartyl-L-alanyl-L-alaninamide]bis(1,1-dimethylethyl)ester] | 18.5 | 168 | 18.0 | 164 | 19.0 | 173
4 | CC(NC(=O)C(N)CC(=O)OC(C)(C)C)C(=O)NC(C)C(=O)NCCNc1ccc(NCCNC(=O)C(C)NC(=O)C(C)NC(=O)C(N)CC(=O)OC(C)(C)C)c2c1C(=O)c1c(O)ccc(O)c1C2=O [Example 80, N,N'-[(9,10-Dihydro-5,8-dihydroxy-9,10-dioxo-1,4-anthracenediyl)bis(imino-2,1-ethanediyl)]bis[L-α-aspartyl-L-alanyl-L-alaninamide]bis(1,1-dimethylethyl)ester] | 19.0 | 173 | 19.5 | 177 | 26.0 | 236
5 | CC(C)C[C@H](NC(=O)[C@H](C)NC(=O)[C@H](CC(=O)OC(C)(C)C)NC(=O)OCC1c2ccccc2-c2ccccc21)C(=O)NCCNc1ccc(NCCNC(=O)[C@H](CC(C)C)NC(=O)[C@H](C)NC(=O)[C@H](CC(=O)OC(C)(C)C)NC(=O)OCC2c3ccccc3-c3ccccc32)c2c1C(=O)c1c(O)ccc(O)c1C2=O [Example 81, N,N'-[(9,10-Dihydro-5,8-dihydroxy-9,10-dioxo-1,4-anthracenediyl)bis(imino-2,1-ethanediyl)]bis[N-[(9H-fluoren-9-ylmethoxy)carbonyl]-L-α-aspartyl-L-alanyl-L-leucinamide]bis(1,1-dimethylethyl)ester] | 16.0 | 145 | 18.5 | 168 | 19.0 | 173
6 | CC(C)C[C@H](NC(=O)[C@H](C)NC(=O)[C@@H](N)CC(=O)OC(C)(C)C)C(=O)NCCNc1ccc(NCCNC(=O)[C@H](CC(C)C)NC(=O)[C@H](C)NC(=O)[C@@H](N)CC(=O)OC(C)(C)C)c2c1C(=O)c1c(O)ccc(O)c1C2=O [Example 82, N,N'-[(9,10-Dihydro-5,8-dihydroxy-9,10-dioxo-1,4-anthracenediyl)bis(imino-2,1-ethanediyl)]bis[L-α-aspartyl-L-alanyl-L-leucinamide]bis(1,1-dimethylethyl)ester] | 21.0 | 191 | 19.0 | 173 | 19.0 | 173
7 | C[C@H](NC(=O)[C@H](C)NC(=O)[C@@H](N)CC(=O)O)C(=O)NCCNc1ccc(NCCNC(=O)[C@H](C)NC(=O)[C@H](C)NC(=O)[C@@H](N)CC(=O)O)c2c1C(=O)c1c(O)ccc(O)c1C2=O.O=C(O)C(F)(F)F.O=C(O)C(F)(F)F [Example 83] | 22.0 | 220 | 22.5 | 225 | 38.5 | 385
8 | CC(C)C[C@H](NC(=O)[C@H](C)NC(=O)[C@@H](N)CC(=O)O)C(=O)NCCNc1ccc(NCCNC(=O)[C@H](CC(C)C)NC(=O)[C@H](C)NC(=O)[C@@H](N)CC(=O)O)c2c1C(=O)c1c(O)ccc(O)c1C2=O.O=C(O)C(F)(F)F.O=C(O)C(F)(F)F [Example 84, N,N'-[(9,10-Dihydro-5,8-dihydroxy-9,10-dioxo-1,4-anthracenediyl)bis(imino-2,1-ethanediyl)]bis[L-α-aspartyl-L-alanyl-L-leucinamide]bis(trifluoroacetate)] | 24.0 | 240 | 21.5 | 215 | 28.0 | 280
9 | Br.Br.N=C(N)NCCC[C@H](N)C(=O)NCCNc1ccc(NCCNC(=O)[C@@H](N)CCCNC(=N)N)c2c1C(=O)c1c(O)ccc(O)c1C2=O [Example 86, N,N'-[(9,10-Dihydro-5,8-dihydroxy-9,10-dioxo-1,4-anthracenediyl)bis(imino-2,1-ethanediyl)]-L-arginine, dihydrobromide] | 22.0 | 200 | 27.0 | 245 | 34.5 | 314
10 | Br.Br.C[C@H](NCCNc1ccc(NCCN[C@@H](C)C(=O)N[C@@H](CCCNC(=N)N)C(=O)OC(C)(C)C)c2c1C(=O)c1c(O)ccc(O)c1C2=O)C(=O)N[C@@H](CCCNC(=N)N)C(=O)OC(C)(C)C [Example 87, N,N'-[(9,10-Dihydro-5,8-dihydroxy-9,10-dioxo-1,4-anthracenediyl)bis(imino-2,-ethanediyl)]bis[L-alanyl-L-arginine]bis(1,1-dimethylethyl)ester, dihydrobromide] | 17.0 | 170 | 19.0 | 190 | 20.5 | 205
11 | Br.Br.Br.Br.C[C@H](N)C(=O)N[C@@H](CCCNC(=N)N)C(=O)NCCNc1ccc(NCCNC(=O)[C@H](CCCNC(=N)N)NC(=O)[C@H](C)N)c2c1C(=O)c1c(O)ccc(O)c1C2=O [Example 88, N,N'-[(9,10-Dihydro-5,8-dihydroxy-9,10-dioxo-1,4-anthracenediyl)bis(imino-2,1-ethanediyl)]bis-[L-alanyl-L-argininamide]tetrahydrobromide] | 22.5 | 225 | 33.0 | 330 | 44.0 | 440
12 | Br.Br.C[C@H](NC(=O)OC(C)(C)C)C(=O)N[C@@H](C)C(=O)N[C@@H](CCCNC(=N)N)C(=O)NCCNc1ccc(NCCNC(=O)[C@H](CCCNC(=N)N)NC(=O)[C@H](C)NC(=O)[C@H](C)NC(=O)OC(C)(C)C)c2c1C(=O)c1c(O)ccc(O)c1C2=O [Example 89, N,N'-[(9,10-Dihydro-5 8-dihydroxy-9,10-dioxo-1,4-anthracenediyl)bis(imino-2,1-ethanediyl)]bis[N-[(1,1-dimethylethoxy)carbonyl]-L-alanyl-L-alanyl-L-argininamide]-dihydrobromide] | 17.0 | 155 | 17.5 | 159 | 24.5 | 223
13 | Br.Br.C[C@H](N)C(=O)N[C@@H](C)C(=O)N[C@@H](CCCNC(=N)N)C(=O)NCCNc1ccc(NCCNC(=O)[C@H](CCCNC(=N)N)NC(=O)[C@H](C)NC(=O)[C@H](C)N)c2c1C(=O)c1c(O)ccc(O)c1C2=O.O=C(O)C(F)(F)F.O=C(O)C(F)(F)F [Example 90, N,N'-[(9,10-Dihydro-5,8-dihydroxy-9,10-dioxo-1,4-anthracenediyl)bis(imino-2,1-ethanediyl)]bis[L-alanyl-L-alanyl-L-argininamide], dihydrobromide, bis(trifluoroacetate)] | 23.5 | 214 | 23.5 | 214 | 19.5 | 177
